The text below walks through data of US20240199651A1, “ANTIBACTERIAL COMPOUNDS” (JANSSEN SCIENCES IRELAND UNLIMITED COMPANY, priority 2021, published 2024).

This series can be described thus: Mitochondrial toxicity (Glu/Gal) assay. The series is classed as cell-based. As to conditions: for Δ IC50, glu/IC50, gal: ratio IC50 glu / IC50 gal; for Score: mitotoxicity score, Glu/Gal assay. An excerpt:
The compounds of the invention/examples may have advantages associated with in vitro potency, kill kinetics (i.e. bactericidal effect) in vitro, PK properties, food effect, safety/toxicity (including liver toxicity, coagulation, 5-LO oxygenase), metabolic stability, Ames II negativity, MNT negativity, aqueous based solubility (and ability to formulate) and/or cardiovascular effect e.g. on animals (e.g. anesthetized guinea pig). Data that is generated/calculated may be obtained using standard methods/assays, for instance that are available in the literature or which may be performed by a supplier (e.g. Microsomal Stability Assay—Cyprotex, Mitochondrial toxicity (Glu/Gal) assay—Cyprotex, as well as literature CYP cocktail inhibition assays). GSH can be measured (reactive metabolites, glucuronidation) to observe if a dihydrodiol is observed by LCMS (fragmentation ions), which would correspond to a dihydroxylation on the core heterocycle.

The mark [1] stands for this setting: galactose medium (Glu/Gal mitotoxicity assay), read-out: IC50, gal.
Where [2] appears, read: glucose medium (Glu/Gal mitotoxicity assay), read-out: IC50, glu.

Molecules are shown by their SMILES. Read-outs that look alike come from different tables or passages of the source.

In the case of `CCc1nc2cc(Cl)c(C)cn2c1C(=O)NCc1ccc(-c2nc3n(n2)CCN(S(=O)(=O)C(F)(F)F)C3)cc1` [Compound 25], the “Δ IC50, glu/IC50, gal” value is given as above 2.26. In addition, where the note is “read-out: IC50, gal”, the IC50 came to 22.1 µM. The IC50 (read-out: IC50, glu) was above 50 µM.

On to `CCc1nc2ccc(C)cn2c1C(=O)NCc1ccc(-c2nc3n(n2)CCN(CCOC)C3)cc1` [Compound 55], for which the Score entry is “[x]1” and the “Δ IC50, glu/IC50, gal” value is on record as above 1.15. Besides, where the note is “read-out: IC50, gal”, the IC50 worked out at 174 µM. The IC50 (read-out: IC50, glu) is above 200 µM.

Turning to `CCc1nc2ccc(C)cn2c1C(=O)NCc1ccc(-c2nc3n(n2)CCN(C(C)=O)C3)cc1` [Compound 46], the half-maximal inhibitory concentration (IC50) by setting is: under setting [1], above 200 µM; under setting [2], above 200 µM.

With `Cc1cnc2nc(C3CC3)c(C(=O)NCc3ccc(-c4nc5n(n4)CCN(S(=O)(=O)C(F)(F)F)C5)c(F)c3)n2c1` [Compound 97], the IC50 under setting [1] is above 25 µM and the IC50 under setting [2] was above 25 µM.

For `CCc1nc2ncc(C(C)C)cn2c1C(=O)NCc1ccc(-c2nc3n(n2)CCN(S(=O)(=O)C(F)(F)F)C3)cc1` [Compound 26], the IC50 is above 200 µM under setting [1] and above 200 µM under setting [2].

In the case of `CCc1nc2ccc(Cl)cn2c1C(=O)NCc1ccc(-c2nc3n(n2)CCN(S(=O)(=O)C(F)(F)F)C3)c(F)c1` [Compound 3], the Score result is “[x]1” and the “Δ IC50, glu/IC50, gal” value came out at 0.91. The concentration for half-maximal inhibition (IC50) (read-out: IC50, gal) stood at 73.1 µM. Moreover, the IC50 (read-out: IC50, glu) was 66.2 µM.

Take `CCc1nc2ccc(Cl)cn2c1C(=O)NCc1ccc(-c2cc3n(n2)CCN(S(=O)(=O)C(F)(F)F)C3)cc1` [Compound 118]: the Score entry was “[x]1” and the “Δ IC50, glu/IC50, gal” value is reported as above 1.57. Also, the IC50 (read-out: IC50, gal) was determined as 127 µM. For the same molecule, the IC50 (read-out: IC50, glu) was above 200 µM.

On to `Cc1ccc2nc(C)c(C(=O)NCc3ccc(-c4nc5n(n4)CCN(S(=O)(=O)C(F)(F)F)C5)cc3)n2c1` [Compound 34], for which the Score entry is “[x]0” and the “Δ IC50, glu/IC50, gal” value is given as above 1.13. The IC50 (read-out: IC50, gal) came to 44.2 µM. The IC50 (read-out: IC50, glu) is above 50 µM.

As to `CCc1nc2ncc(C)cn2c1C(=O)NCc1ccc(-c2nc3n(n2)CCN(C)C3)cc1` [Compound 50], the IC50 runs as follows: under setting [1], above 200 µM; under setting [2], above 200 µM.

On to `CCc1nc2ncc(C)cn2c1C(=O)NCc1ccc(-c2nc3n(n2)CCN(S(=O)(=O)C(F)(F)F)C3)s1` [Compound 57], for which the IC50 was above 200 µM under setting [1] and above 200 µM under setting [2].

For `Cc1cnc2nc(C3CC3)c(C(=O)NCc3ccc(-c4cc5n(n4)CCN(S(=O)(=O)C(F)(F)F)C5)cc3)n2c1` [Compound 93], the IC50 was above 200 µM under setting [1] and above 200 µM under setting [2].

`CCc1nc2ncc(C)cn2c1C(=O)NCc1ccc(-c2nc3n(n2)CCN(CCC#N)C3)cc1` [Compound 61]: the IC50 was above 200 µM under setting [1] and above 200 µM under setting [2].

As for `Cc1cnc2nc(C)c(C(=O)NCc3ccc(-c4nc5n(n4)CCN(S(=O)(=O)C(F)(F)F)C5)cc3)n2c1` [Compound 29], the IC50 is above 200 µM under setting [1] and above 200 µM under setting [2].

With `CCc1nc2nc3c(cn2c1C(=O)NCc1ccc(-c2nc4n(n2)CCN(S(=O)(=O)C(F)(F)F)C4)cc1)CCC3` [Compound 45], the IC50 under setting [1] was above 100 µM and the IC50 under setting [2] is above 100 µM.

Regarding `CCc1nc2ncc(C3CC3)cn2c1C(=O)NCc1ccc(-c2nc3n(n2)CCN(S(=O)(=O)C(F)(F)F)C3)cc1` [Compound 28], the IC50 is, setting by setting: (read-out: IC50, gal) above 200 µM; (read-out: IC50, glu) above 200 µM.

For the molecule `Cc1cnc2nc(C3CC3)c(C(=O)NCc3ccc(-c4cc5n(n4)CCN(C)C5)cc3)n2c1` [Compound 100], the IC50 is above 200 µM under setting [1] and above 200 µM under setting [2].

On to `CCc1nc2ncc(C)cn2c1C(=O)NCc1nnc(-c2nc3n(n2)CCN(S(=O)(=O)C(F)(F)F)C3)s1` [Compound 76], for which the IC50 (read-out: IC50, gal) is above 200 µM and the IC50 (read-out: IC50, glu) is above 200 µM.

On to `CCc1nc2cc(C)c(Cl)cn2c1C(=O)NCc1ccc(-c2nc3n(n2)CCN(S(=O)(=O)C(F)(F)F)C3)c(F)c1` [Compound 9], for which the Score result is “[x]1” and the “Δ IC50, glu/IC50, gal” value was found to be 1.15. Also, the IC50 (read-out: IC50, gal) was found to be 19.9 µM. Moreover, the 50% inhibitory concentration (IC50) (read-out: IC50, glu) was 22.9 µM.

For the molecule `Cc1cnc2nc(C3CC3)c(C(=O)NCc3ccc(-c4cc5n(n4)CCN(S(=O)(=O)CC(C)C)C5)cc3)n2c1` [Compound 108], the Score result was “[x]0” and the “Δ IC50, glu/IC50, gal” value is listed as above 1.29. The IC50 (read-out: IC50, gal) amounted to 38.6 µM. The IC50 (read-out: IC50, glu) is above 50 µM.

For the molecule `CCc1nc2ccc(C)cn2c1C(=O)NCc1ccc(-c2nc3n(n2)CCN(CCC#N)C3)cc1` [Compound 62], the IC50 is above 200 µM under setting [1] and above 200 µM under setting [2].

Turning to `CCc1nc2ncc(C)cn2c1C(=O)NCc1ccc(-c2nc3n(n2)CCN(S(=O)(=O)N(C)C)C3)cc1` [Compound 41], the IC50 runs as follows: under setting [1], above 200 µM; under setting [2], above 200 µM.

For `CCc1nc2ncc(Cl)cn2c1C(=O)NCc1cnc(-c2nc3n(n2)CCN(S(=O)(=O)C(F)(F)F)C3)c(F)c1` [Compound 77], the IC50 (read-out: IC50, gal) is above 200 µM and the IC50 (read-out: IC50, glu) is above 200 µM.

`CCc1nc2ncc(C)cn2c1C(=O)NCc1ccc(N2CCC(c3nc4n(n3)CCN(S(=O)(=O)C(F)(F)F)C4)CC2)cc1` [Compound 60]: the “Δ IC50, glu/IC50, gal” value is recorded as above 3.56. Further, where the note is “read-out: IC50, gal”, the IC50 amounted to 56.2 µM. Moreover, for the setting “read-out: IC50, glu”, the IC50 was above 200 µM.

With `CCc1nc2ncc(C)cn2c1C(=O)NCc1ncc(-c2nc3n(n2)CCN(S(=O)(=O)C(F)(F)F)C3)s1` [Compound 64], the IC50 is above 200 µM under setting [1] and above 200 µM under setting [2].

As for `CCc1nc2ncc(C)cn2c1C(=O)NCc1ccc(-c2nc3n(n2)CCN(C(C)=O)C3)cc1` [Compound 40], the IC50 under setting [1] is above 200 µM and the IC50 under setting [2] is above 200 µM.

Regarding `CCc1nc2c(F)cc(Cl)cn2c1C(=O)NCc1ccc(-c2nc3n(n2)CCN(S(=O)(=O)C(F)(F)F)C3)cc1` [Compound 21], the Score result was “[x]1” and the “Δ IC50, glu/IC50, gal” value is 1.65. Further, for the setting “read-out: IC50, gal”, the IC50 came out at 59.4 µM. The IC50 (read-out: IC50, glu) stood at 97.9 µM.

Consider `Cc1nc2sc(Cl)cn2c1C(=O)NCc1ccc(-c2nc3n(n2)CCN(S(=O)(=O)C(F)(F)F)C3)cc1` [Compound 38], for which the Score entry is “[x]3” and the “Δ IC50, glu/IC50, gal” value was above 11.52. For the same molecule, under “read-out: IC50, gal”, the IC50 turned out to be 8.68 µM. In addition, the half-maximal inhibitory concentration (IC50) (read-out: IC50, glu) was above 100 µM.

As to `Cc1cn2c(C(=O)NCc3ccc(-c4nc5n(n4)CCN(S(=O)(=O)C(F)(F)F)C5)cc3)c(C)nc2s1` [Compound 32], the Score entry is “[x]3” and the “Δ IC50, glu/IC50, gal” value is recorded as above 12.72. Further, the IC50 (read-out: IC50, gal) came out at 15.7 µM. Besides, the concentration for half-maximal inhibition (IC50) (read-out: IC50, glu) is above 200 µM.

Consider `O=C(NCc1ccc(-c2cc3n(n2)CCN(S(=O)(=O)C(F)(F)F)C3)cc1)c1c(C(F)F)nc2ccccn12` [Compound 120], for which the Score entry was “[x]3” and the “Δ IC50, glu/IC50, gal” value is recorded as above 8.01. For the same molecule, where the note is “read-out: IC50, gal”, the IC50 amounted to 25 µM. For the same molecule, the IC50 (read-out: IC50, glu) is above 200 µM.

On to `CCc1nc2ncc(C)cn2c1C(=O)NCc1cccc(-c2nc3n(n2)CCN(S(=O)(=O)C(F)(F)F)C3)c1` [Compound 67], for which the Score entry is “[x]1” and the “Δ IC50, glu/IC50, gal” value was above 1.34. Besides, where the note is “read-out: IC50, gal”, the IC50 was determined as 149 µM. For the same molecule, the IC50 (read-out: IC50, glu) is above 200 µM.

Take `CCc1nc2ncc(C)cn2c1C(=O)NCc1ccc(N2CCN(c3nc4n(n3)CCN(S(=O)(=O)C(F)(F)F)C4)CC2)cc1` [Compound 70]: the IC50 is above 50 µM (read-out: IC50, gal) and above 50 µM (read-out: IC50, glu).
